Source: article PMC12274840 (The Journal of Biological Chemistry, 2025)
Values after ≈ are worked out from the molar mass of the structure shown. Like-named read-outs stand apart in the source and are kept apart here.

Legend:
[1] = tested on: E. coli KA797 cells carrying KPC-2 position 105 library; assay type: cell-based; conditions: selection with labelled antibiotic
[2] = tested on: E. coli KA797 cells carrying pUK21 with TEM-1 Y105R; assay type: cell-based, Escherichia coli; conditions: antibiotic alone
[3] = tested on: E. coli KA797 cells carrying pUK21 with TEM-1 WT (Sec); experiment: microbe, parasite or virus in culture; assay type: cell-based; conditions: Escherichia coli, antibiotic alone
[4] = molecular target: T1, CTX-M-14 Y105G (Escherichia coli, UniProt Q9L5C7, Y108G); assay type: biochemical
T1 construct: 29 to 291 of CTX-M-14 (Q9L5C7); His tag with TEV cleavage site (N); made in house; host or cells: E. coli BL21 (DE3) pLysS

[5] = tested on: E. coli KA797 cells carrying CTX-M-14 position 105 library; assay type: cell-based
[6] = tested on: E. coli KA797 cells carrying pUK21 with BlaC WT (Tat); experiment: microbe, parasite or virus in culture; assay type: cell-based; conditions: Escherichia coli, antibiotic alone
[7] = tested on: E. coli KA797 cells carrying NmcA position 105 library; assay type: cell-based
[8] = tested on: E. coli KA797 cells carrying pUK21 with CTX-M-14 Y105G; assay type: cell-based, Escherichia coli; conditions: antibiotic alone
[9] = tested on: E. coli KA797 cells carrying pUK21 with BlaC I105R; assay type: cell-based, Escherichia coli; conditions: antibiotic alone
[10] = tested on: E. coli KA797 cells carrying pUK21 with TEM-1 Y105G; assay type: cell-based, Escherichia coli; conditions: antibiotic alone
[11] = tested on: E. coli KA797 cells carrying pUK21 with KPC-2 (Tat); experiment: microbe, parasite or virus in culture; assay type: cell-based; conditions: Escherichia coli, antibiotic alone
[12] = molecular target: TEM-1 Y105G (Escherichia coli, UniProt P62593, Y103G); experiment: Steady-state kinetics of substrate hydrolysis, TEM-1 Y105G; assay type: biochemical; conditions: phosphate buffer pH 6.4, 25 °C
[13] = molecular target: T2, BlaC WT (Mycobacterium tuberculosis, UniProt P9WKD3); assay type: biochemical; conditions: pH 6.4
T2 construct: correspond to residue numbers 41-307 of BlaC (Uniprot entry P9WKD3-1); His tag with TEV cleavage site (N); made in house; host or cells: E. coli BL21 (DE3) pLysS

[14] = tested on: E. coli KA797 cells carrying pUK21 with CTX-M-14 Y105R; assay type: cell-based, Escherichia coli; conditions: antibiotic alone
[15] = tested on: E. coli KA797 cells carrying pUK21 with BlaC I105G; assay type: cell-based, Escherichia coli; conditions: antibiotic alone

SMILES: CC1(C)S[C@@H]2[C@H](NC(=O)C(C(=O)O)c3ccccc3)C(=O)N2[C@H]1C(=O)O (stereo partly shown) [carbenicillin]
- Fi AVG (average fitness of replicates) ([1]; KPC-2 AA 105 = Ala): -1.895
- Fi AVG (average fitness of replicates) ([1]; KPC-2 AA 105 = Arg): -0.930
- Significance of average fitness ([1]; KPC-2 AA 105 = Arg): -
- Fi AVG (average fitness of replicates) ([1]; KPC-2 AA 105 = Asn): -1.475
- Fi AVG (average fitness of replicates) ([1]; KPC-2 AA 105 = Asp): -1.100
- Significance of average fitness ([1]; KPC-2 AA 105 = Asp): -
- Fi AVG (average fitness of replicates) ([1]; KPC-2 AA 105 = Cys): -1.311
- Significance of average fitness ([1]; KPC-2 AA 105 = Cys): -
- Fi AVG (average fitness of replicates) ([1]; KPC-2 AA 105 = Gln): -2.037
- Significance of average fitness ([1]; KPC-2 AA 105 = Gln): -
- Fi AVG (average fitness of replicates) ([1]; KPC-2 AA 105 = Glu): -1.844
- Fi AVG (average fitness of replicates) ([1]; KPC-2 AA 105 = Gly): -1.656
- Significance of average fitness ([1]; KPC-2 AA 105 = Gly): -
- Fi AVG (average fitness of replicates) ([1]; KPC-2 AA 105 = His): 0.833
- Significance of average fitness ([1]; KPC-2 AA 105 = His): +
- Fi AVG (average fitness of replicates) ([1]; KPC-2 AA 105 = Ile): -0.975
- Fi AVG (average fitness of replicates) ([1]; KPC-2 AA 105 = Leu): -1.769
- Significance of average fitness ([1]; KPC-2 AA 105 = Leu): -
- Fi AVG (average fitness of replicates) ([1]; KPC-2 AA 105 = Met): -2.969
- Fi AVG (average fitness of replicates) ([1]; KPC-2 AA 105 = Phe): -1.337
- Significance of average fitness ([1]; KPC-2 AA 105 = Phe): -
- Fi AVG (average fitness of replicates) ([1]; KPC-2 AA 105 = Ser): -2.334
- Significance of average fitness ([1]; KPC-2 AA 105 = Ser): -
- Fi AVG (average fitness of replicates) ([1]; KPC-2 AA 105 = Thr): -0.740
- Significance of average fitness ([1]; KPC-2 AA 105 = Thr): -
- Fi AVG (average fitness of replicates) ([1]; KPC-2 AA 105 = Trp (WT, reference)): 0.000
- Fi AVG (average fitness of replicates) ([1]; KPC-2 AA 105 = Tyr): -1.021
- Significance of average fitness ([1]; KPC-2 AA 105 = Tyr): -
- Fi AVG (average fitness of replicates) ([1]; KPC-2 AA 105 = Val): -2.800
- Significance of average fitness ([1]; KPC-2 AA 105 = Val): -
- WT abs Fi 1 (absolute fitness) ([1]; KPC-2 WT (Trp 105), replicate 1): 0.136
- WT abs Fi 2 (absolute fitness) ([1]; KPC-2 WT (Trp 105), replicate 2): -0.163
- WT abs Fi 3 (absolute fitness) ([1]; KPC-2 WT (Trp 105), replicate 3): 0.473
- MIC [2]: 4000 µg/mL (≈ 10600 µM)
- MIC [3]: 32000 µg/mL (≈ 84600 µM)
- kcat ([4]; phosphate buffer pH 6.4, 25 °C): 11 ± 2 s⁻¹
- Km ([4]; read-out: KM^app, phosphate buffer pH 6.4, 25 °C): 228 ± 61 µM
- Significance of average fitness ([5]; CTX-M-14 AA 105 Ala): -
- Significance of average fitness ([5]; CTX-M-14 AA 105 Arg): -
- Significance of average fitness ([5]; CTX-M-14 AA 105 Asn): -
- Significance of average fitness ([5]; CTX-M-14 AA 105 Asp): -
- Significance of average fitness ([5]; CTX-M-14 AA 105 Cys): -
- Significance of average fitness ([5]; CTX-M-14 AA 105 Gln): -
- Significance of average fitness ([5]; CTX-M-14 AA 105 Glu): -
- Significance of average fitness ([5]; CTX-M-14 AA 105 Gly): -
- Significance of average fitness ([5]; CTX-M-14 AA 105 His): -
- Significance of average fitness ([5]; CTX-M-14 AA 105 Ile): -
- Significance of average fitness ([5]; CTX-M-14 AA 105 Leu): -
- Significance of average fitness ([5]; CTX-M-14 AA 105 Lys): -
- Significance of average fitness ([5]; CTX-M-14 AA 105 Met): -
- Significance of average fitness ([5]; CTX-M-14 AA 105 Pro): -
- Significance of average fitness ([5]; CTX-M-14 AA 105 Ser): -
- Significance of average fitness ([5]; CTX-M-14 AA 105 Thr): -
- Significance of average fitness ([5]; CTX-M-14 AA 105 Val): -
- WT abs Fi 1 (absolute fitness of wild type, Replicate 1) ([5]; CTX-M-14 WT (Tyr 105)): 0.706
- MIC [6]: 800 µg/mL (≈ 2110 µM)
- Fi AVG (average fitness of replicates) ([7]; NmcA AA 105 Ala): -0.798
- Significance of average fitness ([7]; NmcA AA 105 Ala): -
- Fi AVG (average fitness of replicates) ([7]; NmcA AA 105 Arg): -0.438
- Significance of average fitness ([7]; NmcA AA 105 Arg): -
- Fi AVG (average fitness of replicates) ([7]; NmcA AA 105 Asn): -0.329
- Significance of average fitness ([7]; NmcA AA 105 Asn): -
- Fi AVG (average fitness of replicates) ([7]; NmcA AA 105 Asp): -0.908
- Significance of average fitness ([7]; NmcA AA 105 Asp): -
- Fi AVG (average fitness of replicates) ([7]; NmcA AA 105 Cys): -0.727
- Significance of average fitness ([7]; NmcA AA 105 Cys): -
- Fi AVG (average fitness of replicates) ([7]; NmcA AA 105 Gln): -0.466
- Significance of average fitness ([7]; NmcA AA 105 Gln): -
- Fi AVG (average fitness of replicates) ([7]; NmcA AA 105 Glu): -0.772
- Significance of average fitness ([7]; NmcA AA 105 Glu): -
- Fi AVG (average fitness of replicates) ([7]; NmcA AA 105 Gly): -0.274
- Significance of average fitness ([7]; NmcA AA 105 Gly): -
- Fi AVG (average fitness of replicates) ([7]; NmcA AA 105 His): 0.000
- Fi AVG (average fitness of replicates) ([7]; NmcA AA 105 Ile): -0.761
- Significance of average fitness ([7]; NmcA AA 105 Ile): -
- Fi AVG (average fitness of replicates) ([7]; NmcA AA 105 Leu): -0.728
- Significance of average fitness ([7]; NmcA AA 105 Leu): -
- Fi AVG (average fitness of replicates) ([7]; NmcA AA 105 Lys): -0.642
- Significance of average fitness ([7]; NmcA AA 105 Lys): -
- Fi AVG (average fitness of replicates) ([7]; NmcA AA 105 Met): -0.481
- Significance of average fitness ([7]; NmcA AA 105 Met): -
- Fi AVG (average fitness of replicates) ([7]; NmcA AA 105 Phe): -0.458
- Significance of average fitness ([7]; NmcA AA 105 Phe): -
- Fi AVG (average fitness of replicates) ([7]; NmcA AA 105 Pro): -0.671
- Significance of average fitness ([7]; NmcA AA 105 Pro): -
- Fi AVG (average fitness of replicates) ([7]; NmcA AA 105 Ser): -0.589
- Significance of average fitness ([7]; NmcA AA 105 Ser): -
- Fi AVG (average fitness of replicates) ([7]; NmcA AA 105 Thr): -0.842
- Significance of average fitness ([7]; NmcA AA 105 Thr): -
- Fi AVG (average fitness of replicates) ([7]; NmcA AA 105 Trp): -0.118
- Significance of average fitness ([7]; NmcA AA 105 Trp): -
- Fi AVG (average fitness of replicates) ([7]; NmcA AA 105 Tyr): -0.304
- Significance of average fitness ([7]; NmcA AA 105 Tyr): -
- Fi AVG (average fitness of replicates) ([7]; NmcA AA 105 Val): -0.711
- Significance of average fitness ([7]; NmcA AA 105 Val): -
- WT abs Fi 1 (absolute fitness) ([7]; NmcA WT, replicate 1): 0.462
- WT abs Fi 2 (absolute fitness) ([7]; NmcA WT, replicate 2): 0.578
- MIC [8]: 1000 µg/mL (≈ 2640 µM)
- MIC [9]: 1600 µg/mL (≈ 4230 µM)
- MIC [10]: 16,000 μg/ml
- MIC [11]: 400 µg/mL (≈ 1060 µM)
- kcat [12]: 59.0 ± 0.3 s⁻¹
- kcat [13]: 0.51 ± 00.2 s⁻¹
- Km ([13]; read-out: KM^app): 5.5 ± 0.7 µM
- MIC [14]: 2000 µg/mL (≈ 5290 µM)
- MIC [15]: 800 µg/mL (≈ 2110 µM)
